In brackets after ≈: the same amount, converted by molar mass. Numbered stars: 1 amine (or outer) side, 2 acyl side, 3 side chain; on linkers, the order of the positions; unused ones are H or OH. Bridge positions count the residues as written; N and C are the ends. Square brackets hold non-standard residues; d marks the D form. Peptide text beside a SMILES is read from it. * marks the point of attachment. hTyr(3S-OH,4S-OH,3'-OSO3H) = N[C@H](C(=O)O)[C@H](O)[C@@H](O)c1ccc(O)c(OS(=O)(=O)O)c1; Orn(4R-OH,5R-OH) = O=C([C@H](C[C@@H](O)[C@@H](O)N[*:3])N[*:1])[*:2]; Orn(4R-OH,5S-OH) = O=C([C@H](C[C@@H](O)[C@H](O)N[*:3])N[*:1])[*:2]; hTyr(3S-OH,4S-OH) = N[C@H](C(=O)O)[C@H](O)[C@@H](O)c1ccc(O)cc1; Pro(3S-OH,4S-Me) = C[C@H]1CN[C@H](C(=O)O)[C@H]1O; Benzoyl(4-octyloxy) = CCCCCCCCOc1ccc(C(=O)*)cc1; Gln(3R-OH) = NC(=O)C[C@@H](O)[C@H](N)C(=O)O; Palmitoyl = CCCCCCCCCCCCCCCC(=O)*; Hyp = O=C(O)[C@@H]1C[C@@H](O)CN1
How the values were obtained:
Aspergillus niger = assay: In vitro antifungal activity against Aspergillus niger ATCC 9642 at 37 degrees C for 22h; type: functional, organism-based; conditions: ATCC 9642, 22 h
Aspergillus fumigatus = assay: In vitro antifungal activity against Aspergillus fumigatus FD050 at 37 degrees C for 22h; type: functional, organism-based
Candida albicans [1] = assay: In vivo effective dose for antifungal activity on sc administration in female mice infected with 2.5*10e6 cells/mL of Candida albicans at day 10; type: functional
Candida albicans [2] = assay: In vivo effective dose for antifungal activity on sc administration in female mice infected with 2.5*10e6 cells/mL of Candida albicans at day 14; type: functional
Pichia kudriavzevii = assay: In vitro antifungal activity against Candida krusei YC109 at 37 degrees C for 22h; type: functional, organism-based
Candida albicans [3] = assay: Compound was tested for inhibitory activity against 1,3-beta-glucan synthase from Candida albicans 6406; type: functional
Candida albicans [4] = assay: In vitro antifungal activity against Candida albicans FP578 at 37 degrees C for 22h; type: functional, organism-based
Candida albicans [5] = assay: In vitro antifungal activity against Candida albicans FP582 at 37 degrees C for 22h; type: functional, organism-based
Candida albicans [6] = assay: In vitro antifungal activity against Candida albicans FP629 at 37 degrees C for 22h; type: functional, organism-based
Candida albicans [7] = assay: In vitro antifungal activity against Candida albicans FP633 at 37 degrees C for 22h; type: functional, organism-based
Candida tropicalis = assay: In vitro antifungal activity against Candida tropicalis YC118 at 37 degrees C for 22h; type: functional, organism-based
Cryptococcus neoformans [8] = assay: In vitro antifungal activity against Cryptococcus neoformans YC203 at 30 degrees C for 48 hr; type: functional, organism-based
Cyberlindnera jadinii = assay: In vitro antifungal activity against Candida utilis YC123 at 37 degrees C for 22h; type: functional, organism-based; conditions: Williopsis jadinii
Mus musculus = organism: Mus musculus; assay: Minimum lytic concentration that lysed red blood cells in mouse; type: functional
Pneumocystis carinii [9] = assay: Evaluated for inhibitory growth of Pneumocystis carinii cysts in lungs administered at the dose of 10 mg/kg expressed as number of cysts/lungs for 8 weeks; type: functional
Pneumocystis carinii [10] = assay: Evaluated for inhibitory growth of Pneumocystis carinii cysts in lungs administered at the dose of 10 mg/kg expressed as number of cysts/lungs for 3 weeks; type: functional
Homo sapiens [11] = organism: Homo sapiens; assay: Lytic concentration for hemolytic activity in human by akaishi method; type: functional
Homo sapiens [12] = organism: Homo sapiens; assay: Minimum lytic concentration that lysed red blood cells in human; type: functional
Candida albicans [13] = assay: In vitro inhibitory concentration required for antifungal activity against Candida albicans FP578 at 37 degrees C for 22h; type: functional, organism-based
Cryptococcus neoformans [14] = assay: In vitro inhibitory concentration degrees C for 48 hr; type: functional, organism-based

What does the source list for `CCCCCCCCCCCCCCCC(=O)N[C@H]1C[C@@H](O)[C@H](O)NC(=O)[C@@H]2[C@@H](O)[C@@H](C)CN2C(=O)[C@H]([C@H](O)CC(N)=O)NC(=O)[C@H]([C@H](O)[C@@H](O)c2ccc(O)c(OS(=O)(=O)O)c2)NC(=O)[C@@H]2C[C@@H](O)CN2C(=O)[C@H]([C@@H](C)O)NC1=O` (Palmitoyl-[Orn(4R-OH,5S-OH)]T[Hyp][hTyr(3S-OH,4S-OH,3'-OSO3H)][Gln(3R-OH)][Pro(3S-OH,4S-Me)]; lactam 1-C)?
IC50 (Aspergillus niger): 0.004 µg/mL (≈ 0.0034 µM); IC50 (Aspergillus fumigatus): 1.3 µg/mL (≈ 1.11 µM); ED50 (Candida albicans [1]): 1.1 mg/kg; ED50 (Candida albicans [2]): 2.9 mg/kg; IC50 (Pichia kudriavzevii): 0.14 µg/mL (≈ 0.119 µM); IC50 (Candida albicans [3]): 0.7 µg/mL (≈ 0.596 µM); IC50 (Candida albicans [4]): 0.025 µg/mL (≈ 0.0213 µM); IC50 (Candida albicans [5]): 0.004 µg/mL (≈ 0.0034 µM); IC50 (Candida albicans [6]): 0.018 µg/mL (≈ 0.0153 µM); IC50 (Candida albicans [7]): 0.018 µg/mL (≈ 0.0153 µM); IC50 (Candida tropicalis): 0.09 µg/mL (≈ 0.0766 µM); IC50 (Cryptococcus neoformans [8]): > 2.5 µg/mL; IC50 (Cyberlindnera jadinii): 0.03 µg/mL (≈ 0.0255 µM); MLC (Mus musculus): 31 µg/mL (≈ 26.4 µM); Activity (Pneumocystis carinii [9]): 2; Activity (Pneumocystis carinii [10]): <1.8; LC30 (Homo sapiens [11]): 160 µg/mL (≈ 136 µM); MLC (Homo sapiens [12]): 31 µg/mL (≈ 26.4 µM)

Which Activity (Pneumocystis carinii [9]) does the source give for `COc1cc(Cc2cnc(N)nc2N)cc(OC)c1OC.Cc1cc(NS(=O)(=O)c2ccc(N)cc2)no1` [CO-TRIMOXAZOLE] here?
The Activity was 4.1.

And the Activity (Pneumocystis carinii [10])?
Its Activity is <1.8.

Which IC50 (Aspergillus niger) does the source give for `CCCCCCCCOc1ccc(C(=O)N[C@H]2C[C@@H](O)[C@@H](O)NC(=O)[C@@H]3[C@@H](O)[C@@H](C)CN3C(=O)[C@H]([C@@H](C)O)NC(=O)[C@H]([C@H](O)[C@@H](O)c3ccc(O)cc3)NC(=O)[C@@H]3C[C@@H](O)CN3C(=O)[C@H]([C@@H](C)O)NC2=O)cc1` [CILOFUNGIN] ({Benzoyl(4-octyloxy)}-[Orn(4R-OH,5R-OH)]T[Hyp][hTyr(3S-OH,4S-OH)]T[Pro(3S-OH,4S-Me)]; lactam 1-C) here?
The IC50 was 0.08 µg/mL (≈ 0.0777 µM).

And the IC50 (Aspergillus fumigatus)?
The IC50 was > 0.003 µg/mL.

And the ED50 (Candida albicans [1])?
The ED50 was 5 mg/kg.

What about the ED50 (Candida albicans [2]) of the same compound?
Its ED50 is > 10 mg/kg.

What about the IC50 (Candida albicans [13]) of the same compound?
Its IC50 is 0.36 µg/mL (≈ 0.349 µM).

And the IC50 (Pichia kudriavzevii)?
The IC50 was 3.2 µg/mL (≈ 3.11 µM).

What about the IC50 (Candida albicans [5]) of the same compound?
The IC50 was 0.24 µg/mL (≈ 0.233 µM).

What about the IC50 (Candida albicans [6]) of the same compound?
Its IC50 is 0.47 µg/mL (≈ 0.456 µM).

What about the IC50 (Candida albicans [7]) of the same compound?
The IC50 was 0.39 µg/mL (≈ 0.379 µM).

What about the IC50 (Candida tropicalis) of the same compound?
Its IC50 is 0.94 µg/mL (≈ 0.912 µM).

And the IC50 (Cryptococcus neoformans [14])?
The IC50 was > 2.5 µg/mL.

And the IC50 (Cyberlindnera jadinii)?
Its IC50 is 0.94 µg/mL (≈ 0.912 µM).

What about the MLC (Mus musculus) of the same compound?
The MLC was > 500 µg/mL.

What about the LC30 (Homo sapiens [11]) of the same compound?
The LC30 was > 500 µg/mL.

What about the MLC (Homo sapiens [12]) of the same compound?
The MLC was > 1000 µg/mL.

With `C[C@@H]1[C@H](O)[C@@H](C)/C=C/C=C/C=C/C=C/C=C/C=C/C=C/[C@H](O[C@@H]2O[C@H](C)[C@@H](O)[C@H](N)[C@@H]2O)C[C@@H]2O[C@](O)(C[C@@H](O)C[C@@H](O)[C@H](O)CC[C@@H](O)C[C@@H](O)CC(=O)O[C@H]1C)C[C@H](O)[C@H]2C(=O)O` [AMPHOTERICIN B] as the compound, how does the IC50 (Aspergillus niger) read?
Its IC50 is 1.9 µg/mL (≈ 2.06 µM).

What about the IC50 (Aspergillus fumigatus) of the same compound?
The IC50 was 0.62 µg/mL (≈ 0.671 µM).

And the IC50 (Candida albicans [13])?
The IC50 was 0.39 µg/mL (≈ 0.422 µM).

And the IC50 (Pichia kudriavzevii)?
Its IC50 is 1.6 µg/mL (≈ 1.73 µM).

And the IC50 (Candida albicans [5])?
Its IC50 is 0.55 µg/mL (≈ 0.595 µM).

What about the IC50 (Candida albicans [6]) of the same compound?
Its IC50 is 0.39 µg/mL (≈ 0.422 µM).

And the IC50 (Candida albicans [7])?
The IC50 was 0.39 µg/mL (≈ 0.422 µM).

And the IC50 (Candida tropicalis)?
Its IC50 is 0.62 µg/mL (≈ 0.671 µM).

What about the IC50 (Cryptococcus neoformans [8]) of the same compound?
The IC50 was 0.39 µg/mL (≈ 0.422 µM).

And the IC50 (Cyberlindnera jadinii)?
Its IC50 is 0.47 µg/mL (≈ 0.509 µM).

`CCCCCCCCOc1ccc(C(=O)N[C@H]2C[C@@H](O)[C@H](O)NC(=O)[C@@H]3[C@@H](O)[C@@H](C)CN3C(=O)[C@H]([C@H](O)CC(N)=O)NC(=O)[C@H]([C@H](O)[C@@H](O)c3ccc(O)c(OS(=O)(=O)[O-])c3)NC(=O)[C@@H]3C[C@@H](O)CN3C(=O)[C@H]([C@@H](C)O)NC2=O)cc1.[Na+]` [FR-131535] ({Benzoyl(4-octyloxy)}-[Orn(4R-OH,5S-OH)]T[Hyp][hTyr(3S-OH,4S-OH,3'-OSO3H)][Gln(3R-OH)][Pro(3S-OH,4S-Me)]; lactam 1-C) was tested. Which IC50 (Aspergillus niger) did it give?
The IC50 was 0.16 µg/mL.

And the IC50 (Aspergillus fumigatus)?
Its IC50 is < 0.003 µg/mL.

And the ED50 (Candida albicans [1])?
The ED50 was 3 mg/kg.

What about the ED50 (Candida albicans [2]) of the same compound?
Its ED50 is 3.5 mg/kg.

What about the IC50 (Pichia kudriavzevii) of the same compound?
Its IC50 is 1.9 µg/mL.

What about the IC50 (Candida albicans [3]) of the same compound?
The IC50 was 2.8 µg/mL.

And the IC50 (Candida albicans [4])?
The IC50 was 0.31 µg/mL.

And the IC50 (Candida albicans [5])?
The IC50 was 0.39 µg/mL.

And the IC50 (Candida albicans [6])?
The IC50 was 0.47 µg/mL.

And the IC50 (Candida albicans [7])?
Its IC50 is 0.47 µg/mL.

And the IC50 (Candida tropicalis)?
The IC50 was 0.47 µg/mL.

And the IC50 (Cryptococcus neoformans [8])?
Its IC50 is > 2.5 µg/mL.

And the IC50 (Cyberlindnera jadinii)?
The IC50 was 1.35 µg/mL.

What about the MLC (Mus musculus) of the same compound?
Its MLC is > 500 µg/mL.

What about the Activity (Pneumocystis carinii [9]) of the same compound?
The Activity was 2.3.

What about the Activity (Pneumocystis carinii [10]) of the same compound?
The Activity was <1.8.

And the LC30 (Homo sapiens [11])?
The LC30 was > 500 µg/mL.

What about the MLC (Homo sapiens [12]) of the same compound?
The MLC was > 1000 µg/mL.

With `C[C@@H]([C@H](N)C(=O)N[C@H](C(=O)O)[C@H]1O[C@@H](n2cc(C=O)nc2O)[C@H](O)[C@@H]1O)[C@H](O)c1ccc(O)cn1` as the compound, how does the IC50 (Candida albicans [3]) read?
The IC50 was > 100 µg/mL.

What does the source list for `OC(Cn1cncn1)(Cn1cncn1)c1ccc(F)cc1F` [FLUCONAZOLE]?
ED50 (Candida albicans [1]): < 1 mg/kg; ED50 (Candida albicans [2]): 2.4 mg/kg

Reference: ChEMBL document CHEMBL1134173, “FR131535, a novel water-soluble echinocandin-like lipopeptide: synthesis and biological properties” (Bioorg Med Chem Lett, 2001)
